# Measurements: patent US20080194574A1, “Pyrazine Derivatives As Effective Compounds Against Infectious Diseases” (AXXIMA PHARMACEUTICALS AG, priority 2003, published 2008)
# Target: T1, viral kinase pUL-97 (Human cytomegalovirus, UniProt P16788)
# T1 construct: The pUL-97 gene was cloned into a baculovirus vector; GST (glutathione S-transferase) (N); made in house; host or cells: Sf9 insect cells, baculovirus
# Test: UL97 kinase assay on Immobilon plate
# Assay type: biochemical
# Conditions: inhibition of UL 97 kinase activity; class by IC50 / % inhibition at 10 μM or 100 μM; read-out: Activity Class [A, B, C]
# Summary of the method: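 GST-pUL97 from baculovirus-infected Sf9 cells phosphorylated myelin basic protein with ATP (3 μM in the added assay buffer) and γ-[33P]ATP in Tris-HCl pH 7.5 buffer with MnCl2 and DTT. Reaction ran 1 h at 30 °C with graded compound concentrations and was stopped with EDTA. 33P incorporation was measured by scintillation after filter capture and phosphoric acid washes.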
# T1 sequence (P16788 whole entry): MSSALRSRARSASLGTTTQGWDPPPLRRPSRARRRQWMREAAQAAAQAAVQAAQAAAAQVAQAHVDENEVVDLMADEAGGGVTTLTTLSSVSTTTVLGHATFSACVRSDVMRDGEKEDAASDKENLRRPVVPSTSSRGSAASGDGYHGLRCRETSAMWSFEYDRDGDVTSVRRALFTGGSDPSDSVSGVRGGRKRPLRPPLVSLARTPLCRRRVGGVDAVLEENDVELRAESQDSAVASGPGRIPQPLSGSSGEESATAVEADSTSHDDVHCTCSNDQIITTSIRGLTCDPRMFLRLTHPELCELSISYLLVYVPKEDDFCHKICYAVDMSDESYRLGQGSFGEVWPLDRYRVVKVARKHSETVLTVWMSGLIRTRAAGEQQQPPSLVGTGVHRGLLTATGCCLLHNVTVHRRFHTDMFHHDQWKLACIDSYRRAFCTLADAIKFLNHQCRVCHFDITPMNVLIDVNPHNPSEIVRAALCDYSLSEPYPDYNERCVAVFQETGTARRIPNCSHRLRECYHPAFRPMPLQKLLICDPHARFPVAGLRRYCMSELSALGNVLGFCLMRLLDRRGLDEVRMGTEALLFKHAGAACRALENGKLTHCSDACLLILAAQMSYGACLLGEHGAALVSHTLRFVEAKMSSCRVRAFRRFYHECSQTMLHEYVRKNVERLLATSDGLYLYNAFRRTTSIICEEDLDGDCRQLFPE
row,SMILES,IC50 [µM]
1,"COc1ccc(-c2cncc(N3CCN(c4ccc(C(C)=O)cc4)CC3)n2)cc1F [compound 206, 1-{4-[6′-(3-Fluoro-4-methoxy-phenyl)-2,3,5,6-tetrahydro-[1,2′]bipyrazinyl-4-yl]-phenyl}-ethanone]",1 to 10
2,CN(C)c1ccc(-c2cncc(N3CCN(c4ccc(F)cc4F)CC3)n2)cc1 [compound 208],1 to 10

# Now from value to compound:
row,IC50 [µM],SMILES
1,1 to 10,"CN(C)c1ccc(-c2cncc(N3CCN(c4cnccn4)CC3)n2)cc1 [compound 343, Dimethyl-[4-(2′,3′,5′,6′-tetrahydro-[2,1′;4′,2″]terpyrazin-6-yl)-phenyl]-amine]"
2,10 to 100,"Cc1ccc(N2CCN(c3cncc(-c4ccc(F)c(Cl)c4)n3)CC2)c(C)c1 [compound 281, 6′-(3-Chloro-4-fluoro-phenyl)-4-(2,4-dimethyl-phenyl)-3,4,5,6-tetrahydro-2H-[1,2′]bipyrazinyl]"
3,10 to 100,"Cc1cc(C)cc(-c2cncc(N3CCN(c4ccc(F)cc4F)CC3)n2)c1 [compound 209, 4-(2,4-Difluoro-phenyl)-6′-(3,5-dimethyl-phenyl)-3,4,5,6-tetrahydro-2H-[1,2′]bipyrazinyl]"
4,1 to 10,"FC(F)(F)c1ccc(N2CCN(c3cncc(-c4ccc5ccccc5c4)n3)CC2)cc1 [compound 352, 6′-Naphthalen-2-yl-4-(4-trifluoromethyl-phenyl)-3,4,5,6-tetrahydro-2H-[1,2′]bipyrazinyl]"
5,10 to 100,"c1ccc(C2CCN(c3cncc(-c4csc5ccccc45)n3)CC2)cc1 [compound 319, 2-Benzo[b]thiophen-3-yl-6-(4-phenyl-piperidin-1-yl)-pyrazine]"
6,1 to 10,"COc1cccc(-c2cncc(N3CCN(c4ccc(Cl)cc4)CC3)n2)c1 [compound 302, 4-(4-Chloro-phenyl)-6′-(3-methoxy-phenyl)-3,4,5,6-tetrahydro-2H-[1,2′]bipyrazinyl]"
7,1 to 10,"COc1cccc(N2CCN(c3cncc(-c4ccc(C(N)=O)cc4)n3)CC2)c1 [compound 364, 4-[4-(3-Methoxy-phenyl)-3,4,5,6-tetrahydro-2H-[1,2′]bipyrazinyl-6′-yl]-benzamide]"
8,10 to 100,"FC(F)(F)c1cccc(N2CCN(c3cncc(-c4ccoc4)n3)CC2)c1 [compound 255, 6′-Furan-3-yl-4-(3-trifluoromethyl-phenyl)-3,4,5,6-tetrahydro-2H-[1,2′]bipyrazinyl]"
9,1 to 10,"Cc1cccc(-c2cncc(N3CCN(c4cnccn4)CC3)n2)c1 [compound 329, 6-m-Tolyl-2′,3′,5′,6′-tetrahydro-[2,1′;4′,2″]terpyrazine]"
10,1 to 10,"COc1ccc(N2CCN(c3cncc(-c4cc5ccccc5o4)n3)CC2)cc1 [compound 282, 6′-Benzofuran-2-yl-4-(4-methoxy-phenyl)-3,4,5,6-tetrahydro-2H-[1,2′]bipyrazinyl]"
11,10 to 100,"c1ccc2c(-c3cncc(N4CCN(c5cnccn5)CC4)n3)cccc2c1 [compound 331, 6-Naphthalen-1-yl-2′,3′,5′,6′-tetrahydro-[2,1′;4′,2″]terpyrazine]"
12,10 to 100,"FC(F)(F)c1ccc(N2CCN(c3cncc(-c4ccoc4)n3)CC2)cc1 [compound 353, 6′-Furan-3-yl-4-(4-trifluoromethyl-phenyl)-3,4,5,6-tetrahydro-2H-[1,2′]bipyrazinyl]"
13,1 to 10,"OCc1ccc(-c2cncc(N3CCN(c4ccncc4)CC3)n2)cc1 [compound 258, [4-(4-Pyridin-4-yl-3,4,5,6-tetrahydro-2H-[1,2′]bipyrazinyl-6′-yl)-phenyl]-methanol]"
14,10 to 100,"FC(F)(F)c1cccc(N2CCN(c3cncc(-c4ccccc4Oc4ccccc4)n3)CC2)c1 [compound 217, 6′-(2-Phenoxy-phenyl)-4-(3-trifluoromethyl-phenyl)-3,4,5,6-tetrahydro-2H-[1,2′]bipyrazinyl]"
15,10 to 100,"CC(=O)c1ccccc1-c1cncc(N2CCN(c3cccc(Cl)c3)CC2)n1 [compound 236, 1-{2-[4-(3-Chloro-phenyl)-3,4,5,6-tetrahydro-2H-[1,2′]bipyrazinyl-6′-yl]-phenyl}-ethanone]"
16,10 to 100,"Cc1ccc(N2CCN(c3cncc(-c4ccc(F)c(Cl)c4)n3)CC2)cc1C [compound 316, 6′-(3-Chloro-4-fluoro-phenyl)-4-(3,4-dimethyl-phenyl)-3,4,5,6-tetrahydro-2H-[1,2′]bipyrazinyl]"
17,10 to 100,"Cc1cc(C)cc(-c2cncc(N3CCN(c4ccc(Cl)c(Cl)c4)CC3)n2)c1 [compound 358, 4-(3,4-Dichloro-phenyl)-6′-(3,5-dimethyl-phenyl)-3,4,5,6-tetrahydro-2H-[1,2′]bipyrazinyl]"
18,10 to 100,"Cc1ccc(N2CCN(c3cncc(-c4ccc5ccccc5c4)n3)CC2)c(C)c1 [compound 320, 4-(2,4-Dimethyl-phenyl)-6′-naphthalen-2-yl-3,4,5,6-tetrahydro-2H-[1,2′]bipyrazinyl]"
19,10 to 100,"Fc1ccc(-c2cncc(N3CCN(c4cccc(Cl)c4)CC3)n2)cc1Cl [compound 238, 6′-(3-Chloro-4-fluoro-phenyl)-4-(3-chloro-phenyl)-3,4,5,6-tetrahydro-2H-[1,2′]bipyrazinyl]"

# Same assay, conditions: inhibition of UL 97 kinase activity; class by IC50 / % inhibition at 10 or 100 μM; read-out: Activity Class [A, B, C]
row,SMILES,IC50 [µM]
1,"CC(=O)c1ccc(N2CCN(c3cncc(-c4csc5ccccc45)n3)CC2)cc1 [compound 152, 1-[4-(6′-Benzo[b]thiophen-3-yl-2,3,5,6-tetrahydro-[1,2′]bipyrazinyl-4-yl)-phenyl]-ethanone]",1 to 10
2,"OCc1ccc(-c2cncc(N3CCN(c4cccc5[nH]ccc45)CC3)n2)cc1 [compound 61, {4-[4-(1H-Indol-4-yl)-3,4,5,6-tetrahydro-2H-[1,2′]bipyrazinyl-6′-yl]-phenyl}-methanol]",10 to 100
3,"COc1ccc(-c2cncc(N3CCN(c4ccc(F)cc4)CC3)n2)cc1OC [compound 139, 6′-(3,4-Dimethoxy-phenyl)-4-(4-fluoro-phenyl)-3,4,5,6-tetrahydro-2H-[1,2′]bipyrazinyl]",1 to 10
4,"Clc1ccc(-c2cncc(NCc3ccco3)n2)cc1 [compound 26, [6-(4-Chloro-phenyl)-pyrazin-2-yl]-furan-2-ylmethyl-amine]",< 1
5,"Nc1ncc(-c2ccc3ccccc3c2)nc1N1CCN(c2ccncc2)CC1 [compound 73, 6′-Naphthalen-2-yl-4-pyridin-4-yl-3,4,5,6-tetrahydro-2H-[1,2′]bipyrazinyl-3′-ylamine]",< 1
6,"c1ccc(Oc2ccc(-c3cncc(N4CCN(c5ccncc5)CC4)n3)cc2)cc1 [compound 163, 6′-(4-Phenoxy-phenyl)-4-pyridin-4-yl-3,4,5,6-tetrahydro-2H-[1,2′]bipyrazinyl]",1 to 10
7,"Fc1ccc(-c2cncc(N3CCN(c4ccncc4)CC3)n2)cc1Cl [compound 33, 6′-(3-Chloro-4-fluoro-phenyl)-4-pyridin-4-yl-3,4,5,6-tetrahydro-2H-[1,2′]bipyrazinyl]",< 1
8,"Cc1cc(C)cc(-c2cncc(N3CCN(c4ccc(F)cc4)CC3)n2)c1 [compound 179, 6′-(3,5-Dimethyl-phenyl)-4-(4-fluoro-phenyl)-3,4,5,6-tetrahydro-2H-[1,2′]bipyrazinyl]",10 to 100
9,"COc1cccc(-c2cncc(N3CCN(c4ccncc4)CC3)n2)c1 [compound 78, 6′-(3-Methoxy-phenyl)-4-pyridin-4-yl-3,4,5,6-tetrahydro-2H-[1,2′]bipyrazinyl]",1 to 10
10,"OCc1cccc(-c2cncc(N3CCN(c4ccncc4)CC3)n2)c1 [compound 52, [3-(4-Pyridin-4-yl-3,4,5,6-tetrahydro-2H-[1,2′]bipyrazinyl-6′-yl)-phenyl]-methanol]",10 to 100
11,"FC(F)(F)c1cccc(-c2cncc(N3CCN(c4ccncc4)CC3)n2)c1 [compound 32, 4-Pyridin-4-yl-6′-(3-trifluoromethyl-phenyl)-3,4,5,6-tetrahydro-2H-[1,2′]bipyrazinyl]",< 1
12,"COc1cccc(-c2cncc(N3CCN(c4ccc(OC)c(OC)c4)CC3)n2)c1 [compound 134, 4-(3,4-Dimethoxy-phenyl)-6′-(3-methoxy-phenyl)-3,4,5,6-tetrahydro-2H-[1,2′]bipyrazinyl]",1 to 10
13,"COc1ccccc1N1CCN(c2cncc(-c3ccccc3C)n2)CC1 [compound 87, 4-(2-Methoxy-phenyl)-6′-o-tolyl-3,4,5,6-tetrahydro-2H-[1,2′]bipyrazinyl]",10 to 100
14,"COc1ccc2cc(-c3cncc(N4CCN(c5ccc(OC)c(OC)c5)CC4)n3)ccc2c1 [compound 169, 4-(3,4-Dimethoxy-phenyl)-6′-(6-methoxy-naphthalen-2-yl)-3,4,5,6-tetrahydro-2H-[1,2′]bipyrazinyl]",1 to 10
15,"COc1ccc(N2CCN(c3cncc(-c4cccc5ccccc45)n3)CC2)cc1OC [compound 43, 4-(3,4-Dimethoxy-phenyl)-6′-naphthalen-1-yl-3,4,5,6-tetrahydro-2H-[1,2′]bipyrazinyl]",10 to 100
16,"CN(C)c1ccc(-c2cncc(N3CCN(c4cccc(Cl)c4)CC3)n2)cc1 [compound 182, {4-[4-(3-Chloro-phenyl)-3,4,5,6-tetrahydro-2H-[1,2′]bipyrazinyl-6′-yl]-phenyl}-dimethyl-amine]",10 to 100
17,"COc1ccc(N2CCN(c3cncc(-c4cccc(OC)c4OC)n3)CC2)cc1OC [compound 171, 4-(3,4-Dimethoxy-phenyl)-6′-(2,3-dimethoxy-phenyl)-3,4,5,6-tetrahydro-2H-[1,2′]bipyrazinyl]",10 to 100
18,"COc1cc(-c2cncc(N3CCN(c4cccc5[nH]ccc45)CC3)n2)cc(OC)c1OC [compound 37, 4-(1H-Indol-4-yl)-6′-(3,4,5-trimethoxy-phenyl)-3,4,5,6-tetrahydro-2H-[1,2′]bipyrazinyl]",10 to 100
19,"Cc1ccccc1-c1cncc(N2CCN(c3ccccc3F)CC2)n1 [compound 124, 4-(2-Fluoro-phenyl)-6′-o-tolyl-3,4,5,6-tetrahydro-2H-[1,2′]bipyrazinyl]",10 to 100
